The source of these data is ChEMBL document CHEMBL1131844, “Substituted indoles as potent and orally active 5-lipoxygenase activating protein (FLAP) inhibitors” (Bioorg Med Chem Lett, 1999).

The species named for data set [1] is Homo sapiens. In words: In vitro inhibition of LTB4 biosynthesis in Ca++ ionophore activated human polymorphonuclear (HPMN) leukocytes. In kind it is functional. Particulars: Homo sapiens.
The target in data set [2] is T1, Arachidonate 5-lipoxygenase-activating protein (Homo sapiens, UniProt P20292).
T1 sequence (P20292 whole entry): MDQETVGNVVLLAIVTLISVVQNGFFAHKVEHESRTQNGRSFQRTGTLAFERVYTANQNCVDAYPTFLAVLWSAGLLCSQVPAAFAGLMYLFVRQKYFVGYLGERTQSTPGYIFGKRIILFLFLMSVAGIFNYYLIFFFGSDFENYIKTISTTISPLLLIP
In words: Measuring the affinity of leukotriene synthesis inhibitor for 5-Lipoxygenase activating protein (FLAP) by using [125I]L-691831 as radioligand.

In data set [3] the test system is Rattus norvegicus. In words: Compound was evaluated in vivo for its functional activity(in percent) in a hyperreactive rat model of dyspnea. Also noted: concentration or dose not given beside the values.
Data set [4] in a line: Bioavailability in rat. The conditions noted are these: in vivo. In kind it is ADME, organism-based.
Data set [5] can be described thus: plasma level at 2 hr after administration of the compound. In kind it is ADME, organism-based. The conditions noted are these: rat.
The test system of data set [6] is Rattus norvegicus. Nature of the data set: In vivo inhibitory activity against LTB4 biosynthesis by rat pleurisy model (3h pre treatment time periods). It counts as functional.
For data set [7], the species on record is Homo sapiens. In words: The drug dependent inhibition of LTB4 biosynthesis in human whole blood (HWB) activated with the ionophore A-23187. Particulars: Homo sapiens, Blood. It counts as functional, organism-based.

Each structure is given as a SMILES string.

The IC50 is the concentration at which inhibition is half-maximal. As usually defined, the bioavailability is the share of a dose that reaches the circulation, judged against a reference dose that is usually intravenous. One may read the ED50 as the midpoint of the dose-response relation. For `C[C@@H](COc1ccc2c(c1)c(SC(C)(C)C)c(CC(C)(C)C(=O)O)n2Cc1ccc(Cl)cc1)c1ccccn1`, the 50% inhibitory concentration (IC50) is 2 nM in the data set listed under Homo sapiens [1], 6 nM in data set [2] and 280 nM in the data set filed under Homo sapiens [7]. In addition, in the data set on Rattus norvegicus [3], the “Functional activity in dyspnea model” value is 64%. The bioavailability in data set [4] was found to be 60%. Also, the concentration at 2 h in data set [5] stood at 13 µM. The compound also returned a median effective dose (ED50) in the data set on Rattus norvegicus [6] of 0.16 mg/kg.
